One series concerns BECKER. Briefly: Colony formation (CFU) assay, BECKER. As to conditions: 336 h, CFU ~14 days, wells with DMSO or 300 nM Compound 1, read-out: Chemotherapy nM IC50s. It is filed as cell-based. As to the method: (§1) In vitro experiments were conducted using the colony formation unit (CFU) assay on various cell lines. The CFU assay involved first establishing what cell plating density enabled the development of clearly interspersed colonies on a six-well plate when left to grow for around 14 days. […] At or around day 14 when clearly interspersed colonies were visible in the DMSO-treated wells, the cells were fixed and stained using 0.1% crystal violet in 10% ethanol for 20 minutes at room temperature. The plates were imaged then the amount of crystal violet stain in each well was quantified by extracting the crystal violet into 10% acetic acid and the absorbance measured at 565 nm.
(§2) For certain cell lines, multiple IC50 values were taken, and those are separated by commas. Synergy scores are in parentheticals.

For a further series, the system named is GOTO. Briefly: Colony formation (CFU) assay, GOTO. Format: cell-based. As to conditions: 336 h, nervous system, CFU ~14 days, wells with DMSO or 300 nM Compound 1, read-out: Chemotherapy nM IC50s. As to the method: as §1, §2
The next series has as its system U251MG. Briefly: Colony formation (CFU) assay, U251MG. It is filed as cell-based. As to conditions: Homo sapiens, U-251, 336 h, nervous system, CFU ~14 days, wells with DMSO or 300 nM Compound 1, read-out: Chemotherapy nM IC50s. As to the method:
as §1, §2

For series [1], the system named is MDA-MB-436 cell line-derived breast xenograft. Briefly: Anti-tumor activity, MDA-MB-436 cell line-derived breast xenograft model. It is filed as in vivo. As to conditions: Compound 1 100 mg/kg p.o. once daily 28 days + cisplatin 2 mg/kg i.v. once weekly x4; MDA-MB-436, NOD SCID mice; FIG. 6A. As to the method: Six to eight week old female NOD SCID mice from Beijing Anikeeper Biotech CO, Ltd were implanted subcutaneously with 1×10^7 MDA-MB-436 cells. When tumors established to a tumor volume of approximately 240 mm^3 mice were randomized into groups of 5 and were assigned into the following groups: control, cisplatin (2 mg/kg), Compound 1 (100 mg/kg) or Compound 1 (100 mg/kg) and cisplatin (2 mg/kg) combination. Cisplatin was administered intravenously via tail vein once weekly for a total of 4 doses. Compound 1 was administered via oral gavage once daily for 28 days. Body weight and tumor volume were measured twice per week. Tumor volume was calculated as mean and standard error of the mean for each treatment group.

For series [2], the system named is HBCx-8 patient-derived breast xenograft. Briefly: Anti-tumor activity, HBCx-8 patient-derived breast xenograft model. Format: in vivo, Athymic nude mice. As to conditions: Compound 1 100 mg/kg p.o. once daily 42 days + cisplatin 5 mg/kg i.v. once weekly x3; HBCx-8 PDX, nude mice; FIG. 7A. As to the method: Six to nine week old female Athymic nude mice from Envigo were anesthetized and a 20 mm^3 tumor fragment placed subcutaneously via incision in the flank. […] Cisplatin was administered intravenously via tail vein once weekly for a total of 3 doses. Compound 1 was administered via oral gavage once daily for 42 days. Body weight and tumor volume were measured twice per week. Tumor volume was calculated as mean and standard error of the mean for each treatment group.

Series [3] has as its system HBCx-11 patient-derived breast xenograft. Briefly: Anti-tumor activity, HBCx-11 patient-derived breast xenograft model. It is filed as in vivo, Athymic nude mice. As to conditions: Compound 1 100 mg/kg p.o. once daily 28 days + cisplatin 3 mg/kg i.v. once weekly x4; HBCx-11 PDX, nude mice; FIG. 8A. As to the method:
Six to nine week old female Athymic nude mice from Envigo were anesthetized and a 20 mm^3 tumor fragment placed subcutaneously via incision in the flank. When tumors established to a tumor volume of between 75 and 196 mm^3 mice were randomized into groups of 3 and were assigned into the following groups: control, Compound 1 (100 mg/kg), cisplatin (3 mg/kg) or Compound 1 (100 mg/kg) and cisplatin (3 mg/kg) combination. Cisplatin was administered intravenously via tail vein once weekly for a total of 4 doses. Compound 1 was administered via oral gavage once daily for 28 days. Body weight and tumor volume were measured twice per week. Tumor volume was calculated as mean and standard error of the mean for each treatment group.
For orientation: In xenograft studies the graft and the host belong to different species.

Another series concerns 5637. Briefly: Colony formation (CFU) assay, 5637. Format: cell-based. As to conditions: 5637, bladder. As to the method:
as §1, §2

The next series deals with 647V. Briefly: Colony formation (CFU) assay, 647V. Format: cell-based. As to conditions: bladder. As to the method: as §1, §2
For another series, the system named is A549. Briefly: Colony formation (CFU) assay, A549. Format: cell-based. As to conditions: A549, lung. As to the method:
as §1, §2

Another series deals with HBCx8. Briefly: Colony formation (CFU) assay, HBCx8. As to conditions: HBCx8, breast. It is filed as cell-based. As to the method: as §1, §2
For another series, the system named is HBCx9. Briefly: Colony formation (CFU) assay, HBCx9. Format: cell-based. As to conditions: HBCx9, breast. As to the method:
as §1, §2

In another series the test system is HCC1806. Briefly: Colony formation (CFU) assay, HCC1806. Format: cell-based. As to conditions: HCC1806, breast; CFU ~14 days; wells with DMSO or 300 nM Compound 1; read-out: Chemotherapy nM IC50s (converted). As to the method: as §1, §2
The subject of a further series is HCT116. Briefly: Colony formation (CFU) assay, HCT116. Format: cell-based. As to conditions: HCT116, colon; CFU ~14 days; wells with DMSO or 300 nM Compound 1; read-out: Chemotherapy nM IC50s. As to the method: as §1, §2
The test system of a further series is HT1376. Briefly: Colony formation (CFU) assay, HT1376. As to conditions: HT1376, bladder. It is filed as cell-based. As to the method:
as §1, §2

In another series the test system is KU1919. Briefly: Colony formation (CFU) assay, KU1919. Format: cell-based. As to conditions: KU1919, bladder. As to the method:
as §1, §2

The next series concerns NCIH1650. Briefly: Colony formation (CFU) assay, NCIH1650. It is filed as cell-based. As to conditions: NCIH1650, lung. As to the method:
as §1, §2

A further series deals with NCIH596. Briefly: Colony formation (CFU) assay, NCIH596. Format: cell-based. As to conditions: NCIH596, lung. As to the method:
as §1, §2

In the next series the test system is SUM149PT. Briefly: Colony formation (CFU) assay, SUM149PT. Format: cell-based. As to conditions: breast. As to the method:
as §1, §2

The next series relates to U2OS. Briefly: Colony formation (CFU) assay, U2OS. It is filed as cell-based. As to conditions: bone. As to the method:
as §1, §2

In the next series the test system is UBLC1. Briefly: Colony formation (CFU) assay, UBLC1. It is filed as cell-based. As to conditions: UBLC1, bladder. As to the method:
as §1, §2

The test system of another series is UMUC3. Briefly: Colony formation (CFU) assay, UMUC3. It is filed as cell-based. As to conditions: UMUC3, bladder. As to the method: as §1, §2
Another series concerns various cell lines. Briefly: Colony formation (CFU) assay, summary over cell lines of Table 1. It is filed as cell-based. As to conditions: combination of USP1 inhibitor (Compound 1, 300 nM) and the chemotherapy agent. As to the method: as §1
In certain cell lines, combinations of the disclosure are synergistic. In some aspects, these combinations are determined to have a Bliss score is about 6, about 7, about 8, about 9, about 10, about 11, about 12, about 13, about 14, about 15, about 16, about 17, about 18, about 19, about 20 or about 25.

Series [4] is described as follows: Maximum tolerated dose of Compound 1 cocrystal in combination with cisplatin, non-tumor bearing mice. As to conditions: non-tumor bearing female Balb/c nude mice; Compound 1 oral gavage once daily 28 days + cisplatin i.v. once a week days 0, 7, 14, 21. As to the method: The maximum tolerated dose (MTD) of the USP1 inhibitor Compound 1 cocrystal in combination with cisplatin was evaluated in non-tumor bearing Balb/c nude mice. 6-8 week old female Balb/c nude mice from Beijing Anikeeper Biotech Co. Ltd were randomized into groups of 5 for control, cisplatin (4 mg/kg) alone, cisplatin (5 mg/kg) alone, cisplatin (6 mg/kg) alone, Compound 1 (50 mg/kg) and cisplatin (4 mg/kg) combination group, Compound 1 (100 mg/kg) and cisplatin (4 mg/kg) combination group, Compound 1 (300 mg/kg) and cisplatin (4 mg/kg) combination group, Compound 1 (50 mg/kg) and cisplatin (5 mg/kg) combination group, Compound 1 (100 mg/kg) and cisplatin (5 mg/kg) combination group, Compound 1 (300 mg/kg) and cisplatin (5 mg/kg) combination group, Compound 1 (50 mg/kg) and cisplatin (6 mg/kg) combination group, Compound 1 (100 mg/kg) and cisplatin (6 mg/kg) combination group, and Compound 1 (300 mg/kg) and cisplatin (6 mg/kg) combination group. Mice were treated with the relevant dose of Compound 1 via oral gavage once daily for 28 days or relevant dose of cisplatin via intravenous injection once a week on days 0, 7, 14, and 21. […]
Body weights were measured daily. Tolerability was assessed by monitoring body weight and calculating body weight changes as % from body weight on day of treatment start (day 0), as shown in FIG. 1-3. […]

The conditions of series [5]: single dose in Balb/c nude mice; Aston W., et al., BMC Cancer 17:684 (2017); cited from earlier work.
The mark [6] stands for this setting: CFU ~14 days, wells with DMSO or 300 nM Compound 1, read-out: Chemotherapy nM IC50s.
Setting [7] is: chemotherapy agent in combination with 300 nM Compound 1.

Several values for one entry are separate records, joined by “and”; a condition that tells them apart may be missing. Equal entries are not always repeated. A value given as a limit tells only on which side of the number the result lay.

`Cn1nnc2c(C(N)=O)ncn2c1=O` [Temozol., Temozolomide]: the IC50 in the series with BECKER, in the series on GOTO and in the series with U251MG was under 1 nM in each case.

On to `COc1ncnc(C2CC2)c1-c1ncc2cnn(Cc3ccc(-c4nc(C(F)(F)F)cn4C(C)C)cc3)c2n1` [Compound 1, 6-(4-cyclopropyl-6-methoxypyrimidin-5-yl)-1-(4-(1-isopropyl-4-(trifluoromethyl)-1H-imidazol-2-yl)benzyl)-1H-pyrazolo[3,4-d]pyrimidine], for which the “anti-tumor activity (tumor volume) of combination versus single agents” value in series [1] is “more prolonged anti-tumor activity”; in [2] it was “more prolonged anti-tumor activity”; in series [3], “superior and more prolonged anti-tumor activity”.

Consider `N.N.[Cl][Pt][Cl]` [Cis., cisplatin], for which the IC50 in the series with 5637 (setting [6]) was 598 nM; in the series with 647V (setting [6]) it was 1780 nM; with A549 (setting [6]), over 316 nM; in the series with HBCx8 (setting [6]) it was 142 nM; with HBCx9 (setting [6]) it was 473 nM; in the series with HCC1806 it was 97 nM and 130 nM. The IC50 is 1260 nM and 895 nM in the series with HCT116; 734 nM in the series with HT1376 (setting [6]); 894 nM with KU1919 (setting [6]); over 1000 nM in the series with NCIH1650 (setting [6]); 129 nM in the series on NCIH596 (setting [6]); over 316 nM in the series on SUM149PT (setting [6]). The IC50 in the series on U2OS (setting [6]) was over 316 nM; with UBLC1 (setting [6]), 308 nM; in the series with UMUC3 (setting [6]), 212 nM. In addition, the synergy score entry in the series with 5637 (setting [7]) is recorded as “(12)”; in the series on 647V (setting [7]), 0; with A549 (setting [7]), “(11)”; with HBCx8 (setting [7]) it was “(1)”; in the series with HBCx9 (setting [7]), “(−1)”; in the series with HT1376 (setting [7]) it was “(10)”. Further, the synergy score entry is given as “(1)” in the series on KU1919 (setting [7]); “(−1)” in the series on NCIH1650 (setting [7]); “(0)” in the series on NCIH596 (setting [7]); “(10)” in the series on SUM149PT (setting [7]); “(3)” in the series on U2OS (setting [7]); “(−2)” in the series with UBLC1 (setting [7]). Further, in the series on UMUC3 (setting [7]), the synergy score result is given as “(1)”. In the series with various cell lines, the “synergy of combination with USP1 inhibitor” value is given as “synergy was detected”. Further, the “combination MTD” value in [4] was 6 mg/kg. Also, the “reported MTD” value in series [5] is given as 6 mg/kg.

The values above are taken from patent publication US20250213574A1, “THERAPEUTIC COMBINATIONS COMPRISING UBIQUITIN- SPECIFIC-PROCESSING PROTEASE 1 (USP1) INHIBITORS AND CHEMOTHERAPY AGENTS” (KSQ Therapeutics, Inc., priority 2022, published 2025).
